Measured values published in the CheMixHub viscosity set.
± gives the uncertainty stated by the source.

Assay: xn = mol fraction of the nth substance listed

CCCCC(=O)O + CCCCCCCCCO
viscosity [mPa·s], 100 kPa
Conditions | x1 = 0.0827 | x1 = 0.1635 | x1 = 0.2318 | x1 = 0.3519 | x1 = 0.4517 | x1 = 0.5569 | x1 = 0.6472 | x1 = 0.7328 | x1 = 0.8691 | x1 = 0.9502
293.15 K | 10.14 ± 0.09 | 8.95 ± 0.09 | 8.08 ± 0.09 | 6.89 ± 0.09 | 6.05 ± 0.09 | 5.25 ± 0.09 | 4.6 ± 0.09 | 4 ± 0.08 | 3.09 ± 0.08 | 2.56 ± 0.08
303.15 K | 6.95 ± 0.09 | 6.12 ± 0.09 | 5.53 ± 0.09 | 4.73 ± 0.08 | 4.16 ± 0.08 | 3.64 ± 0.08 | 3.22 ± 0.08 | 2.86 ± 0.08 | 2.32 ± 0.08 | 2.03 ± 0.08
313.15 K | 5.09 ± 0.08 | 4.64 ± 0.08 | 4.3 ± 0.08 | 3.78 ± 0.08 | 3.39 ± 0.08 | 2.99 ± 0.08 | 2.67 ± 0.08 | 2.38 ± 0.08 | 1.95 ± 0.08 | 1.71 ± 0.08
323.15 K | 3.76 ± 0.08 | 3.47 ± 0.08 | 3.26 ± 0.08 | 2.92 ± 0.08 | 2.66 ± 0.08 | 2.39 ± 0.08 | 2.17 ± 0.08 | 1.96 ± 0.08 | 1.64 ± 0.08 | 1.46 ± 0.08

Cc1cccc(N)c1 + CCCCCC
viscosity [mPa·s], 101.33 kPa
Conditions | x1 = 0.236 | x1 = 0.396 | x1 = 0.579 | x1 = 0.787
295.15 K | 0.46 ± 0.01 | 0.69 ± 0.013 | 0.95 ± 0.015 | 1.54 ± 0.019
305.15 K | 0.39 ± 0.009 | 0.55 ± 0.01 | 0.77 ± 0.012 | 1.25 ± 0.016

CCOC(=O)C(Cl)(Cl)Cl + O=C(O)C(Cl)(Cl)Cl
323.15 K, 101 kPa
Conditions | viscosity [mPa·s]
x1 = 0.2358 | 3.172 ± 0.043
x1 = 0.4086 | 2.346 ± 0.031
x1 = 0.5988 | 1.742 ± 0.023
x1 = 0.7928 | 1.334 ± 0.017

CCCC[N+](CCCC)(CCCC)CCCC.[Br-] + ClC(Cl)(Cl)Cl
303.15 K, 101 kPa
Conditions | viscosity [mPa·s]
x1 = 0.0245 | 2.46 ± 0.02
x1 = 0.026 | 2.59 ± 0.02
x1 = 0.0348 | 3.22 ± 0.03
x1 = 0.0608 | 7.11 ± 0.06
x1 = 0.0946 | 14.33 ± 0.14
x1 = 0.1162 | 24.57 ± 0.25
x1 = 0.1446 | 36.49 ± 0.42
x1 = 0.1666 | 56.17 ± 0.69
x1 = 0.1764 | 63.7 ± 0.89
x1 = 0.2004 | 101.7 ± 2.2
x1 = 0.2171 | 141.8 ± 4.2
x1 = 0.2631 | 307.1 ± 15
x1 = 0.3449 | 1248 ± 110

CCCCOCCOCCOCCCC + COC(=O)OC
viscosity [mPa·s], 101.3 kPa
Conditions | 298.15 K | 308.15 K | 318.15 K
x1 = 0.0176 | 0.616 ± 0.009 | 0.546 ± 0.008 | 0.488 ± 0.007
x1 = 0.0289 | 0.635 ± 0.009 | 0.562 ± 0.008 | 0.498 ± 0.007
x1 = 0.0543 | 0.678 ± 0.01 | 0.599 ± 0.009 | 0.523 ± 0.008
x1 = 0.0894 | 0.743 ± 0.01 | 0.65 ± 0.009 | 0.56 ± 0.008
x1 = 0.1574 | 0.862 ± 0.012 | 0.747 ± 0.011 | 0.634 ± 0.009
x1 = 0.2414 | 1.012 ± 0.014 | 0.867 ± 0.012 | 0.726 ± 0.01
x1 = 0.3274 | 1.169 ± 0.016 | 0.991 ± 0.014 | 0.82 ± 0.012
x1 = 0.3389 | 1.189 ± 0.016 | 1.005 ± 0.014 | 0.83 ± 0.012
x1 = 0.44 | 1.367 ± 0.019 | 1.131 ± 0.016 | 0.947 ± 0.014
x1 = 0.5417 | 1.518 ± 0.021 | 1.266 ± 0.018 | 1.043 ± 0.015
x1 = 0.636 | 1.653 ± 0.024 | 1.377 ± 0.02 | 1.125 ± 0.016
x1 = 0.7193 | 1.745 ± 0.025 | 1.451 ± 0.021 | 1.182 ± 0.018
x1 = 0.8605 | 1.934 ± 0.029 | 1.606 ± 0.024 | 1.289 ± 0.02
x1 = 0.9421 | 2.047 ± 0.031 | 1.677 ± 0.025 | 1.351 ± 0.021
